# Literature values, collected in patent US10112962B2, “Boron-based prodrug strategy for increased bioavailability and lower-dosage requirements for drug molecules containing at least one phenol (or aromatic hydroxyl) group” (XAVIER UNIVERSITY OF LOUISIANA, priority 2014, dated 2018).
# Tests used:
# [1] = literature statement
# [2] = literature statement; remark: listed apart in the source
SMILES,oral bioavailability [1],water solubility [2]
C[C@]12CC[C@@H]3c4ccc(O)cc4C[C@@H](CCCCCCCCC[S+]([O-])CCCC(F)(F)C(F)(F)F)[C@H]3[C@@H]1CC[C@@H]2O (stereo partly shown) [Fulvestrant],poor oral bioavailability,–
"O=C(Nc1ccc([N+](=O)[O-])cc1Cl)c1cc(Cl)ccc1O [niclosamide, Niclosamide]",low oral bioavailability,poor water solubility
"O=C(c1ccc(OCCN2CCCCC2)cc1)c1c(-c2ccc(O)cc2)sc2cc(O)ccc12 [raloxifen, Raloxifene]",poor bioavailability,–
